The target in experiment [1] is T1, E6B08_RS28125 (solute binding protein).
T1 construct: recombinant from pET28b(+), without the predicted signal peptide
Description: isothermal titration calorimetry (and DSF). Further details: species or system Pseudomonas putida. In general terms: In ITC the heat of successive injections is recorded.

Experiment [2] has as its target T2, PcpI (Pseudomonas putida, UniProt A0A4D6XHR0).
T2 construct: gene E6B08_28110; LBD (amino acids 38–174)
T2 sequence (A0A4D6XHR0 38-174): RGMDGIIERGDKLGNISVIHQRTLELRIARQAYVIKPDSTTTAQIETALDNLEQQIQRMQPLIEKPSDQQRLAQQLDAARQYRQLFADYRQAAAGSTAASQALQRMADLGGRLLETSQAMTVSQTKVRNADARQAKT
Description: isothermal titration calorimetry. Type of experiment: binding.

Experiment [3] addresses T2, PcpI. Description: isothermal titration calorimetry; DSF Tm shift […]°C. Type of experiment: binding. The text has this: Exothermic heats were observed that decreased as protein saturation progressed

SMILES strings stand for the structures.

For the molecule `NCCC[C@H](N)C(=O)O` [L-ornithine], the affinity in experiment [1], expressed as Kd, was 0.9 ± 0.1 µM.

With `Cc1cccc(C(=O)O)c1` [3-methylbenzoate], the Kd (usually the free concentration of one partner at which half of the binding sites on the other are occupied at equilibrium, for simple one-to-one binding) at PcpI [2] (read-out: Kd) came out at 91 ± 8 µM.

On PcpI [2], `O=C(O)c1ccccc1` [benzoate] yielded a Kd of 171 ± 14 µM.

`N=C(N)NCCC[C@H](N)C(=O)O` [L-Arg]: the Kd in experiment [1] stood at 29.5 ± 3 µM.

Regarding `N[C@@H](Cc1c[nH]cn1)C(=O)O` [L-His], the affinity in experiment [1], expressed as Kd, was 3.3 ± 0.3 µM.

Regarding `O=C(O)c1ccccc1O` [salicylate], at PcpI [3], the Kd came out at 826 ± 34 µM.

Source of the values: PMC9543091, “A bacterial chemoreceptor that mediates chemotaxis to two different plant hormones” (Environmental Microbiology, 2022).
